Data published in US4359458A, “O-β. -D (and O-α.. -D) Multigalactopyranosyl, xylopyranosyl and glucopyranosyl sulfate salts” (American Cyanamid Company, priority 1981, dated 1982).
Where a name gives a salt, the structure may show the parent alone. Read-outs that look alike come from different tables or passages of the source.

Experiments:
complement system = details: Br. J. Exp. Pathol. 33: 327 (1952); cited from earlier work
activated human C1 = activated human C1 (Homo sapiens, UniProt P09871); assay: Test Code 026 (C1 inhibitor); type: biochemical; details: serial dilution assay, twofold dilutions; higher well number indicates higher activity
Description: (§1) An active inhibitor protects C2 from C1 and C4; (ii) Test Code 035 (C3-C9 inhibitor)--This test determines the ability of the late components of human complement (C3-C9) to lyse EAC 142 in the presence of appropriate dilutions of the test compound. An active inhibitor protects EAC 142 from lysis by human C3-C9; (iii) Test Code 036 (C-Shunt inhibitor)--In this test human erythrocytes rendered fragile are lysed in autologous serum via the shunt pathway activated by cobra venom factor in the presence of appropriate dilutions of the test compound. Inhibition of the shunt pathway results in failure of lysis; (iv) Cap 50 Test--Here, appropriate amounts of the test compound are added to a pool of guinea pig serum in vitro, after which the undiluted serum capillary tube assay of U.S. Pat. No. 3,876,376 is run. The concentration of compound inhibiting 50% is reported; and (v) Guinea Pig Intraperitoneal Test (GPIP)--Guinea pigs weighing about 300 g are dosed intraperitoneally (i.p.) with 200 mg/kg of the test compound dissolved in saline and adjusted to pH 7-8. Approximately 0.4 ml blood samples, taken by orbital sinus puncture 30 minutes and one hour after injections, are collected directly into centrifuge tubes; 5 ml blood samples, taken by decapitation 2 hours after injection are collected directly into beakers. The samples are allowed to clot, centrifuged, and the resultant sera are assayed for complement activity using the capillary complement assay. Percent inhibition is calculated by comparison with simultaneous controls. The results of the GPIP appear in Table I together with results of test code 026, 035, 036 and Cap 50.

[1] = test system: shunt pathway activated by cobra venom factor; assay: Test Code 036 (C-Shunt inhibitor); type: cell-based, human; details: serial dilution assay, twofold dilutions; higher well number indicates higher activity; N = Negative
Description: as §1

complement activity = assay: Guinea Pig Intraperitoneal Test (GPIP); type: in vivo; details: Cavia porcellus, ip, 200 mg/kg i.p.
Description: as §1

[2] = test system: late components of human complement (C3-C9); assay: Test Code 035 (C3-C9 inhibitor); type: biochemical; details: serial dilution assay, twofold dilutions; higher well number indicates higher activity; N = Negative
Description: as §1

[3] = test system: hereditary angioneurotic edema; details: literature reports; cited from earlier work
[4] = test system: total hemolytic complement activity; details: both in vitro and in vivo; judged by reduction in total hemolytic complement activity; cited from earlier work

Row | Compound | Cl 026 Wells (activated human C1) [Wells] | C-Shunt Inhibition 036 Wells [1] [Wells] | C-Late 035 Wells [2] | also measured
1 | Nc1ccc2cc(S(=O)(=O)O)cc(O)c2c1N=Nc1ccc(NC(=O)Nc2ccc(N=Nc3c(N)ccc4cc(S(=O)(=O)O)cc(O)c34)c(S(=O)(=O)O)c2)cc1S(=O)(=O)O [chlorazol fast pink, 3,3'-ureylenebis [6-(2-amino-8-hydroxy-6-sulfo-1-naphthylazo)benzenesulfonic acid], tetrasodium salt] |  |  |  | anti-complementary effect (complement system): anti-complementary effect
2 | O=S(=O)(O)O[C@@H]1[C@@H](OS(=O)(=O)O)[C@@H](O[C@H]2O[C@H](CO[C@@H]3OC[C@@H](OS(=O)(=O)O)[C@H](OS(=O)(=O)O)[C@H]3OS(=O)(=O)O)[C@@H](OS(=O)(=O)O)[C@H](OS(=O)(=O)O)[C@H]2OS(=O)(=O)O)O[C@H](CO[C@@H]2OC[C@@H](OS(=O)(=O)O)[C@H](OS(=O)(=O)O)[C@H]2OS(=O)(=O)O)[C@H]1OS(=O)(=O)O [drawing 14, Xyl 1β,6 glc 1α,1α' glc 1β,6 xyl, dodecakis (H-sulfate), dodecasodium salt] | 11 | 4 |  | inhibition at 200 mg/kg (complement activity; 0.5 h, serum 30 minutes after injection, read-out: In vivo activity (Guinea Pigs) % Inhibition Intraperitoneal, 30 minutes): 57%; inhibition at 200 mg/kg (complement activity; 1 h, serum 60 minutes after injection, read-out: In vivo activity (Guinea Pigs) % Inhibition Intraperitoneal, 60 minutes): 69%; inhibition at 200 mg/kg (complement activity; 2 h, serum 120 minutes after injection, read-out: In vivo activity (Guinea Pigs) % Inhibition Intraperitoneal, 120 minutes): 78%
3 | O=S(=O)(O)OC[C@H]1O[C@@H](OC[C@H]2O[C@H](O[C@H]3O[C@H](CO[C@@H]4O[C@H](COS(=O)(=O)O)[C@@H](O[C@H]5O[C@H](COS(=O)(=O)O)[C@@H](O[C@H]6O[C@H](COS(=O)(=O)O)[C@@H](O[C@H]7O[C@H](COS(=O)(=O)O)[C@@H](O[C@H]8O[C@H](COS(=O)(=O)O)[C@@H](O[C@H]9O[C@H](COS(=O)(=O)O)[C@@H](O[C@H]%10O[C@H](COS(=O)(=O)O)[C@@H](OS(=O)(=O)O)[C@H](OS(=O)(=O)O)[C@H]%10OS(=O)(=O)O)[C@H](OS(=O)(=O)O)[C@H]9OS(=O)(=O)O)[C@H](OS(=O)(=O)O)[C@H]8OS(=O)(=O)O)[C@H](OS(=O)(=O)O)[C@H]7OS(=O)(=O)O)[C@H](OS(=O)(=O)O)[C@H]6OS(=O)(=O)O)[C@H](OS(=O)(=O)O)[C@H]5OS(=O)(=O)O)[C@H](OS(=O)(=O)O)[C@H]4OS(=O)(=O)O)[C@@H](OS(=O)(=O)O)[C@H](OS(=O)(=O)O)[C@H]3OS(=O)(=O)O)[C@H](OS(=O)(=O)O)[C@@H](OS(=O)(=O)O)[C@@H]2OS(=O)(=O)O)[C@H](OS(=O)(=O)O)[C@@H](OS(=O)(=O)O)[C@@H]1O[C@H]1O[C@H](COS(=O)(=O)O)[C@@H](O[C@H]2O[C@H](COS(=O)(=O)O)[C@@H](O[C@H]3O[C@H](COS(=O)(=O)O)[C@@H](O[C@H]4O[C@H](COS(=O)(=O)O)[C@@H](O[C@H]5O[C@H](COS(=O)(=O)O)[C@@H](O[C@H]6O[C@H](COS(=O)(=O)O)[C@@H](OS(=O)(=O)O)[C@H](OS(=O)(=O)O)[C@H]6OS(=O)(=O)O)[C@H](OS(=O)(=O)O)[C@H]5OS(=O)(=O)O)[C@H](OS(=O)(=O)O)[C@H]4OS(=O)(=O)O)[C@H](OS(=O)(=O)O)[C@H]3OS(=O)(=O)O)[C@H](OS(=O)(=O)O)[C@H]2OS(=O)(=O)O)[C@H](OS(=O)(=O)O)[C@H]1OS(=O)(=O)O [drawing 23, Glc 1α,4 (glc 1α,4)5 glc 1β,6 glc 1α,1α'glc 1β,6 glc (glc 1α,4)5 1α,4 glc, pentacontakis (H-sulfate), pentacontasodium salt] | 9 | 6 | 2 Wells | 
4 | O=S(=O)(O)OC[C@H]1O[C@@H](OC[C@H]2O[C@H](O[C@H]3O[C@H](COS(=O)(=O)O)[C@@H](OS(=O)(=O)O)[C@H](OS(=O)(=O)O)[C@H]3OS(=O)(=O)O)[C@H](OS(=O)(=O)O)[C@@H](OS(=O)(=O)O)[C@@H]2OS(=O)(=O)O)[C@H](OS(=O)(=O)O)[C@@H](OS(=O)(=O)O)[C@@H]1O[C@H]1O[C@H](COS(=O)(=O)O)[C@@H](O[C@H]2O[C@H](COS(=O)(=O)O)[C@@H](O[C@H]3O[C@H](COS(=O)(=O)O)[C@@H](O[C@H]4O[C@H](COS(=O)(=O)O)[C@@H](O[C@H]5O[C@H](COS(=O)(=O)O)[C@@H](O[C@H]6O[C@H](COS(=O)(=O)O)[C@@H](OS(=O)(=O)O)[C@H](OS(=O)(=O)O)[C@H]6OS(=O)(=O)O)[C@H](OS(=O)(=O)O)[C@H]5OS(=O)(=O)O)[C@H](OS(=O)(=O)O)[C@H]4OS(=O)(=O)O)[C@H](OS(=O)(=O)O)[C@H]3OS(=O)(=O)O)[C@H](OS(=O)(=O)O)[C@H]2OS(=O)(=O)O)[C@H](OS(=O)(=O)O)[C@H]1OS(=O)(=O)O [drawing 25, Glc 1α,4 (glc 1α,4)5 glc 1β,6 glc 1α,1α'glc, nonacosakis (H-sulfate), nonacosasalt with trimethylamine] | 9 | 5 | N | 
5 | O=S(=O)(O)OC[C@H]1O[C@@H](OC[C@H]2O[C@H](O[C@H]3O[C@H](COS(=O)(=O)O)[C@@H](OS(=O)(=O)O)[C@H](OS(=O)(=O)O)[C@H]3OS(=O)(=O)O)[C@H](OS(=O)(=O)O)[C@@H](OS(=O)(=O)O)[C@@H]2OS(=O)(=O)O)[C@H](OS(=O)(=O)O)[C@@H](OS(=O)(=O)O)[C@@H]1O[C@H]1O[C@H](COS(=O)(=O)O)[C@@H](O[C@H]2O[C@H](COS(=O)(=O)O)[C@@H](O[C@H]3O[C@H](COS(=O)(=O)O)[C@@H](O[C@H]4O[C@H](COS(=O)(=O)O)[C@@H](O[C@H]5O[C@H](COS(=O)(=O)O)[C@@H](O[C@H]6O[C@H](COS(=O)(=O)O)[C@@H](OS(=O)(=O)O)[C@H](OS(=O)(=O)O)[C@H]6OS(=O)(=O)O)[C@H](OS(=O)(=O)O)[C@H]5OS(=O)(=O)O)[C@H](OS(=O)(=O)O)[C@H]4OS(=O)(=O)O)[C@H](OS(=O)(=O)O)[C@H]3OS(=O)(=O)O)[C@H](OS(=O)(=O)O)[C@H]2OS(=O)(=O)O)[C@H](OS(=O)(=O)O)[C@H]1OS(=O)(=O)O [drawing 26, glc 1α,4 (glc 1α,4)5 glc 1β,6 glc 1α,1α'glc, nonacosakis (H-sulfate), nonacosasodium salt] | 10 | 6 | 1 Wells | 
6 | NCCCCCC(=O)O [epsilon-aminocaproic acid] |  |  |  | treatment of hereditary angioneurotic edema [3]: used with success
7 | NC[C@H]1CC[C@H](C(=O)O)CC1 [tranexamic acid] |  |  |  | treatment of hereditary angioneurotic edema [3]: used with success
8 | heparin |  |  |  | anti-complementary effect (complement system): anti-complementary effect
9 | pentosanpolysulfoester |  |  |  | anticomplementary activity on human serum [4]: anticomplementary activity
